For 29 molecules, EC50 and Emax results are on record in patent US11111251B2, “Positive allosteric modulators of the muscarinic acetylcholine receptor M1” (Vanderbilt University, priority 2016, dated 2021).

This test addresses T1, human mAChR M1 (Homo sapiens, UniProt P11229).
T1 sequence (P11229 1-460): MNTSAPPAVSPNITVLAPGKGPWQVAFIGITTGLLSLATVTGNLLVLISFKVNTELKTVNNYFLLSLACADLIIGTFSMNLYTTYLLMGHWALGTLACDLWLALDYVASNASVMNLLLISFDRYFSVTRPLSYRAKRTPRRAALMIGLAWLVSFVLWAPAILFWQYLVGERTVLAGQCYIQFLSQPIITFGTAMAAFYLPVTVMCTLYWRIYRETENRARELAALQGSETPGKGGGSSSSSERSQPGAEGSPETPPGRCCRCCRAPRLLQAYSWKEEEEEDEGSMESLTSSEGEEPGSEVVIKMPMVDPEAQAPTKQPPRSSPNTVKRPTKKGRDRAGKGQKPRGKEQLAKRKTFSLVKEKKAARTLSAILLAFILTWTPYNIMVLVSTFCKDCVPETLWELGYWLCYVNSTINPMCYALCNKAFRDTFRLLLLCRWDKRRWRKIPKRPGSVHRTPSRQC
The experiment in a line: mAChR M1 cell-based functional assay: calcium mobilization, positive allosteric modulator mode (increase in EC20 acetylcholine response). Particulars: Table 2, human M1; for pEC50: read-out: Human M1 EC50; for Emax: read-out: Human M1 Emax (%). The method, boiled down:
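Calcium-flux assay in CHO-K1 cells stably expressing human M1, loaded with Fluo-4 AM (50 min, 37 °C) and read at 1 Hz. Compound (11-point, 1:3 series) was added at 4 s, EC20 acetylcholine at 144 s and EC80 at 230 s. PAM activity is the concentration-dependent rise in the EC20 response, fitted with a four-parameter logistic.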
A general note: A change in cytosolic calcium serves as a functional read-out for many receptors and channels.

pEC50: −log10 of the molar value.

For orientation: pEC50 means the negative decadic logarithm of the EC50, by convention in mol/L. One may read the Emax as the maximal effect, on the per cent scale that the assay sets.

As for `O=C(NC1CC2(COC2)C1)c1cc(Cc2ccc(-c3nccs3)cc2)c2sccc2n1` [Compound 333], the pEC50 is 6.35 and the Emax stood at 84.7%.
In the same order, the values of `Cc1ccc(Cc2cc(C(=O)NC34CC5CC(CC(O)(C5)C3)C4)nc3ccsc23)cn1` [Compound 63, N-(3-hydroxy-1-adamantyl)-7-[(6-methyl-3-pyridyl)methyl]thieno[3,2-b]pyridine-5-carboxamide] are 5.40 and 87%.
Turning to `O=C(N[C@@H]1CCCOC1)c1cc(Cc2ccc(-c3cscn3)cc2)c2sccc2n1` [Compound 212, N-[(3R)-tetrahydropyran-3-yl]-7-[(4-thiazol-4-ylphenyl)methyl]thieno[3,2-b]pyridine-5-carboxamide], the pEC50 was 6.07 and the Emax is 73.3%.
Turning to `Cn1ccc(-c2ccc(Cc3cc(C(=O)NC4CCOCC4(C)C)nc4ccn(C)c34)cn2)n1` (stereo not shown) [Compound 505, N-(3,3-dimethyltetrahydropyran-4-yl)-1-methyl-7-[[6-(1-methylpyrazol-3-yl)-3-pyridyl]methyl]pyrrolo[3,2-b]pyridine-5-carboxamide;], the pEC50 is 6.12 and the Emax was 79.4%.
In the same order, the values of `Cn1ncc2nc(C(=O)N[C@H]3CCCC[C@@H]3O)cc(Cc3ccc(-c4cscn4)cc3)c21` [Compound 492, N-[(1S,2S)-2-hydroxycyclohexyl]-1-methyl-7-[(4-thiazol-4-ylphenyl)methyl]pyrazolo-[4,3-b]pyridine-5-carboxamide] are 6.30 and 73.3%.
In the same order, the values of `Cn1cc(-c2ccc(Cc3cc(C(=O)NC[C@H]4CCCO4)nc4ccsc34)cn2)cn1` [Compound 339, 7-[[6-(1-methylpyrazol-4-yl)-3-pyridyl]methyl]-N-[[(2R)-tetrahydrofuran-2-yl]methyl]thieno[3,2-b]pyridine-5-carboxamide] are 6.88 and 87.4%.
In the same order, the values of `O=C(NC[C@H]1CCCO1)c1cc(Cc2ccc(-n3cccn3)cc2)c2sccc2n1` [Compound 287, 7-[(4-pyrazol-1-ylphenyl)methyl]-N-[[(2R)-tetrahydrofuran-2-yl]methyl]thieno[3,2-b]pyridine-5-carboxamide] are 7.31 and 64.9%.
As to `O=C(N[C@H]1CCOC[C@@H]1O)c1cc(Cc2ccc(-c3nccs3)cc2)c2sccc2n1` [Compound 294], the pEC50 was 7.80 and the Emax was 71.1%.
For the molecule `O=C(N[C@H]1CCCNC1)c1cc(Cc2ccc(-n3cccn3)cc2)c2sccc2n1` [Compound 290, N-[(3S)-3-piperidyl]-7-[(4-pyrazol-1-ylphenyl)methyl]thieno[3,2-b]pyridine-5-carboxamide], the negative logarithm of the EC50 (pEC50) is 5.27 and the Emax was 65.3%.
With `Cn1ccc(-c2ccc(Cc3cc(C(=O)N[C@H]4CC[C@@H]4O)nc4ccn(C)c34)cn2)n1` [Compound 513, N-[(1S,2S)-2-hydroxycyclobutyl]-1-methyl-7-[[6-(1-methylpyrazol-3-yl)-3-pyridyl]methyl]pyrrolo[3,2-b]pyridine-5-carboxamide], the pEC50 was 6.15 and the Emax was determined as 77.8%.
Take `Cc1nc(-c2ccc(Cc3cc(C(=O)NC4CCCCC4)nc4ccsc34)cc2)co1` [Compound 162, N-cyclohexyl-7-[[4-(2-methyloxazol-4-yl)phenyl]methyl]thieno[3,2-b]pyridine-5-carboxamide]: the pEC50 was 5.30 and the Emax turned out to be 74%.
Consider `CN1CCCC(NC(=O)c2cc(Cc3ccc(-n4cccn4)cc3)c3sccc3n2)C1` (stereo not shown) [Compound 442, N-(1-methyl-3-piperidyl)-7-[(4-pyrazol-1-ylphenyl)methyl]thieno[3,2-b]pyridine-5-carboxamide], for which the pEC50 is 5.83 and the Emax was determined as 71.8%.
In the same order, the values of `Cn1ccc(-c2ccc(Cc3cc(C(=O)NC4COC4)nc4ccsc34)cn2)n1` [Compound 415] are 5.08 and 63%.
On the same counts, the results for `O=C(N[C@H]1CC[C@@H]1O)c1cc(Cc2ccc(-c3cncs3)cc2)c2sccc2n1` [Compound 405] are 6.37 and 73.5%.
In the same order, the values of `Cc1csc2c(Cc3ccc(-n4cccn4)cc3)cc(C(=O)N[C@@H]3CCC[C@H]3O)nc12` [Compound 114, N-[(1R,2R)-2-hydroxycyclopentyl]-3-methyl-7-[(4-pyrazol-1-ylphenyl)methyl]thieno[3,2-b]pyridine-5-carboxamide] are 6.25 and 84.5%.
For the molecule `Cc1csc2c(Cc3ccc(-n4cccn4)cc3)cc(C(=O)NC3CCCCNC3=O)nc12` (stereo not shown) [Compound 123, 3-methyl-N-(2-oxoazepan-3-yl)-7-[(4-pyrazol-1-ylphenyl)methyl]thieno[3,2-b]pyridine-5-carboxamide], the negative logarithm of the EC50 (pEC50) was 6.36 and the Emax was 28.8%.
Consider `O=C(NCC1CCOCC1)c1cc(Cc2ccc(-c3cncs3)cc2)c2sccc2n1` [Compound 387, N-(tetrahydropyran-4-ylmethyl)-7-[(4-thiazol-5-ylphenyl)methyl]thieno[3,2-b]pyridine-5-carboxamide], for which the pEC50 was 6.23 and the Emax was determined as 69.5%.
On the same counts, the results for `O=C(NC1CCOCC1)c1cc(C(=O)c2ccc(-n3cccn3)cc2)c2sccc2n1` [Compound 264, 7-(4-pyrazol-1-ylbenzoyl)-N-tetrahydropyran-4-yl-thieno[3,2-b]pyridine-5-carboxamide] are below 5.00 and 72.7%.
In the same order, the values of `Cc1ccc(Cc2cc(C(=O)NC3CC(F)C3)nc3ccsc23)cn1` (stereo not shown) [Compound 259, N-(3-fluorocyclobutyl)-7-[(6-methyl-3-pyridyl)methyl]thieno[3,2-b]pyridine-5-carboxamide] are below 5.00 and 56.2%.
In the case of `Cn1ncc2nc(C(=O)N[C@H]3CCC[C@@H]3O)cc(Cc3ccc(-c4cscn4)cc3)c21` [Compound 491, N-[(1S,2S)-2-hydroxycyelopentyl]-1-methyl-7-[(4-thiazol-4-ylphenyl)methyl]pyrazolo-[4,3-b]pyridine-5-carboxamide], the pEC50 was 5.77 and the Emax came to 72.9%.
On the same counts, the results for `O=C(NC1CCOCC1)c1ccc(Cc2cc(C(=O)NC3CCOCC3)nc3ccsc23)cc1` [Compound 407, N-tetrahydropyran-4-yl-7-[[4-(tetrahydropyran-4-ylcarbamoyl)phenyl]methyl]thieno[3,2-b]pyridine-5-carboxamide] are 6.43 and 69.9%.
On the same counts, the results for `Cc1nc(-c2ccc(Cc3cc(C(=O)NC4CCCCNC4=O)nc4ccsc34)cc2)co1` (stereo not shown) [Compound 172, 7-[[4-(2-methyloxazol-4-yl)phenyl]methyl]-N-(2-oxoazepan-3-yl)thieno[3,2-b]pyridine-5-carboxamide] are 6.16 and 88.8%.
On the same counts, the results for `Cn1ccc(-c2ccc(Cc3cc(C(=O)N[C@H]4CCC[C@@H]4O)nc4ccsc34)cn2)n1` [Compound 352, N-[(1S,2S)-2-hydroxycyclopentyl]-7-[[6-(1-methylpyrazol-3-yl)-3-pyridyl]methyl]thieno[3,2-b]pyridine-5-carboxamide] are 7.49 and 90.7%.
For `Cn1cc(-c2ccc(Cc3cc(C(=O)NC4CCOC(C)(C)C4)nc4ccn(C)c34)cn2)cn1` (stereo not shown) [Compound 472, N-(2,2-dimethyltetrahydropyran-4-yl)-1-methyl-7-[[6-(1-methylpyrazol-4-yl)-3-pyridyl]methyl]pyrrolo[3,2-b]pyridine-5-carboxamide], the pEC50 was 6.37 and the Emax amounted to 85.6%.
Consider `Cn1ccc(-c2ccc(Cc3cc(C(=O)NC4CCOCC4(C)C)nc4ccn(C)c34)cc2)n1` (stereo not shown) [Compound 477, N-(3,3-dimethyltetrahydropyran-4-yl)-1-methyl-7-[[4-(1-methylpyrazol-3-yl)phenyl]methyl]pyrrolo[3,2-b]pyridine-5-carboxamide], for which the pEC50 was 6.70 and the Emax came out at 86.4%.
`CN1CCC(NC(=O)c2cc(Cc3ccc(-c4cscn4)cc3)c3sccc3n2)CC1` [Compound 211, N-(1-methyl-4-piperidyl)-7-[(4-thiazol-4-ylphenyl)methyl]thieno[3,2-b]pyridine-5-carboxamide]: the pEC50 is 5.75 and the Emax is 82.6%.
Turning to `Cn1cc(-c2ccc(Cc3cc(C(=O)N[C@@H]4COCC[C@H]4O)nc4ccsc34)cc2)nn1` [Compound 154, N-[(3R,4R)-4-hydroxytetrahydropyran-3-yl]-7-[[4-(1-methyltriazol-4-yl)phenyl]methyl]thieno[3,2-b]pyridine-5-carboxamide], the negative logarithm of the EC50 (pEC50) was 8.21 and the Emax came out at 83.9%.
In the same order, the values of `Cc1nc(-c2ccc(Cc3cc(C(=O)N[C@H]4CCC[C@@H]4O)nc4c(C)csc34)cc2)co1` [Compound 331, N-[(1S,2S)-2-hydroxycyclopentyl]-3-methyl-7-[[4-(2-methyloxazol-4-yl)phenyl]methyl]thieno[3,2-b]pyridine-5-carboxamide] are 6.43 and 69.7%.
In the case of `Cc1nc(-c2ccc(Cc3cc(C(=O)NC4CCCNC4=O)nc4ccsc34)cc2)cs1` (stereo not shown) [Compound 198, 7-[[4-(2-methylthiazol-4-yl)phenyl]methyl]-N-(2-oxo-3-piperidyl)thieno[3,2-b]pyridine-5-carboxamide], the pEC50 is 6.32 and the Emax is 90%.
